Measured values: paper PMC6199744, “Development of Chemical Proteomics for the Folateome and Analysis of the Kinetoplastid Folateome” (ACS Infectious Diseases, 2018)
Read-outs that look alike come from different tables or passages of the source.

Columns and labels:
Assay type in all cases: binding
[1] = target: T1, HeLa cell extract proteins (Homo sapiens, UniProt P09497)
T1 construct: endogenous in cells; host or cells: HeLa cell extract
T1 sequence (P09497 1-229): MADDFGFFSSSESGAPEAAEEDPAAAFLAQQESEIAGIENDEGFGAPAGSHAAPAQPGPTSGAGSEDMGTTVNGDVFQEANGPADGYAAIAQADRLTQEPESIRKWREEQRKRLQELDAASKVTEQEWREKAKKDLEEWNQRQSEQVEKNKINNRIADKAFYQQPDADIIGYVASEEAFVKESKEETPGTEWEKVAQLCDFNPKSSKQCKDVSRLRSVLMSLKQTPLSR

[2] = target: T2, HeLa cell extract proteins (Homo sapiens, UniProt O43175)
T2 construct: endogenous in cells; host or cells: HeLa cell extract
T2 sequence (O43175 1-533): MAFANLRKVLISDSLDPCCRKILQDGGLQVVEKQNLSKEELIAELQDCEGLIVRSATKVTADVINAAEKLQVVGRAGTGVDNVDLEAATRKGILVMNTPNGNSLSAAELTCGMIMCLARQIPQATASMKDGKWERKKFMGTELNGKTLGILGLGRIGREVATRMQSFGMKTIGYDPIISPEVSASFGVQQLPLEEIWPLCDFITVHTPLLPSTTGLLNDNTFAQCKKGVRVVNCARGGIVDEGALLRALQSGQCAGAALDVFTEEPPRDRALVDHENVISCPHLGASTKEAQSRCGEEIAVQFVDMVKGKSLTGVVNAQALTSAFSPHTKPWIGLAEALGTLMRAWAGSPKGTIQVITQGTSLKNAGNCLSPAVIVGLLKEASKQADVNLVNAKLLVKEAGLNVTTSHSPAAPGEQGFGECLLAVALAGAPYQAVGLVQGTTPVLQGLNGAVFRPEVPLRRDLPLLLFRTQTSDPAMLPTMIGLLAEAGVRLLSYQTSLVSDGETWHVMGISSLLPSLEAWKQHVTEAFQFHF

[3] = target: T3, HeLa cell extract proteins (Homo sapiens, UniProt O75352)
T3 construct: endogenous in cells; host or cells: HeLa cell extract
T3 sequence (O75352 1-247): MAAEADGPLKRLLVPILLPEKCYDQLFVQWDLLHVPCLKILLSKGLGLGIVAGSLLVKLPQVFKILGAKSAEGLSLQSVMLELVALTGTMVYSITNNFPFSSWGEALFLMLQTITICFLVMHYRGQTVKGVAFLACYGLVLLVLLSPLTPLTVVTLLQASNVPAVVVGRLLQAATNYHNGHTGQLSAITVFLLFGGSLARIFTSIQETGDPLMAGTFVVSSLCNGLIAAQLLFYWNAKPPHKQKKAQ

[4] = target: T4, HeLa cell extract proteins (Homo sapiens, UniProt Q9NUI1)
T4 construct: endogenous in cells; host or cells: HeLa cell extract
T4 sequence (Q9NUI1 1-292): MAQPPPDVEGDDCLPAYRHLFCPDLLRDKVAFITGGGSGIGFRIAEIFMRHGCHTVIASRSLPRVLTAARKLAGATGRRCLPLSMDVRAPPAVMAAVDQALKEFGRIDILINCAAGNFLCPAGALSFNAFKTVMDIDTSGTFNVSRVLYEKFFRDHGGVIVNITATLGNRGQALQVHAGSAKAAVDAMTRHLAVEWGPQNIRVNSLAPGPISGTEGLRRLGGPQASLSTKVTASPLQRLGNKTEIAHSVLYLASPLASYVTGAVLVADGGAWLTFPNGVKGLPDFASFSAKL

[5] = target: T5, HeLa cell extract proteins (Homo sapiens, UniProt P04040)
T5 construct: endogenous in cells; host or cells: HeLa cell extract
T5 sequence (P04040 1-527): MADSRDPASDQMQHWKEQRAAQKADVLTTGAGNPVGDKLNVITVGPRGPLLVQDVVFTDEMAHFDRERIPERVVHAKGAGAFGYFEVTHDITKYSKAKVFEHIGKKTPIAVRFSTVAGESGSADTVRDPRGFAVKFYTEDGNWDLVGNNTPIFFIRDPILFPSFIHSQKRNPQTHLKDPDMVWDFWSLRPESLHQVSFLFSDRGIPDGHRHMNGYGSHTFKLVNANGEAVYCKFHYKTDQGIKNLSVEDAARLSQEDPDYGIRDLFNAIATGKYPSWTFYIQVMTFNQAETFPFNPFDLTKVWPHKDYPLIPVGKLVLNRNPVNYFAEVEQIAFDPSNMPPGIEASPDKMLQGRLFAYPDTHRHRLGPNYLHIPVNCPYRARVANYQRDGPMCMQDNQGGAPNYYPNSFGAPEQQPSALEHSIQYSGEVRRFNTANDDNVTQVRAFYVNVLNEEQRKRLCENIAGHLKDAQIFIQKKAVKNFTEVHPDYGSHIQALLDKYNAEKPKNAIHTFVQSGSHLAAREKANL

[6] = target: T6, HeLa cell extract proteins (Homo sapiens, UniProt P05165)
T6 construct: endogenous in cells; host or cells: HeLa cell extract
T6 sequence (P05165 53-728): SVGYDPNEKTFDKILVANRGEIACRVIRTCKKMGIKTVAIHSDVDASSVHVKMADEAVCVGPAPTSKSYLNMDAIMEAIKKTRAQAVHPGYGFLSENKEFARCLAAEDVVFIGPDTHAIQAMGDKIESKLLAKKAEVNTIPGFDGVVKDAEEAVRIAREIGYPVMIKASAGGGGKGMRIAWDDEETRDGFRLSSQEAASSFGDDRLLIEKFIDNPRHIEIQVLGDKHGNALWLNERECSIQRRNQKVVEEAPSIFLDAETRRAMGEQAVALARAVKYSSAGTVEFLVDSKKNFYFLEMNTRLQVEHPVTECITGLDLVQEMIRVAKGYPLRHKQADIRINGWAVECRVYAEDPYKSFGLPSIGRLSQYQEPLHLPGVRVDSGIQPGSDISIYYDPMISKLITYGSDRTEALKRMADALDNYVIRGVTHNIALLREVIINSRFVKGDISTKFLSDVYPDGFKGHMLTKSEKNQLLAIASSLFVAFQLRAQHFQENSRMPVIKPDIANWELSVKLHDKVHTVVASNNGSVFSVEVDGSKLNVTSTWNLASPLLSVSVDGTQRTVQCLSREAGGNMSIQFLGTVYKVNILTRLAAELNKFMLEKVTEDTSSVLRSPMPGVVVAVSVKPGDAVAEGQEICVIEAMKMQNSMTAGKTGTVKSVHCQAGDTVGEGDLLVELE

[7] = HeLa, protein PCCA (80 KDA PROTEIN)

SMILES | fold changes relative to vehicle control ([1]; HeLa, protein CLTB) | fold changes relative to vehicle control ([2]; protein PHGDH, HeLa) | fold changes relative to vehicle control ([3]; protein MPDU1, HeLa) | fold changes relative to vehicle control ([4]; HeLa, protein DECR2) | fold changes relative to vehicle control ([5]; captured protein CAT, HeLa) | fold changes relative to vehicle control ([6]; captured protein PCCA, HeLa) | fold changes relative to vehicle control ([1]; HeLa, captured protein CLTB) | fold changes relative to vehicle control ([3]; HeLa, protein MPDU1) | fold changes relative to vehicle control ([5]; protein CAT, HeLa) | fold changes relative to vehicle control [6, 7] | fold changes relative to vehicle control [1] | fold changes relative to vehicle control [2] | fold changes relative to vehicle control [3] | fold changes relative to vehicle control [4] | fold changes relative to vehicle control [5] | fold changes relative to vehicle control [6]
Nc1nc2cccc(-c3ccccc3)c2n1Cc1ccc(Cl)c(Cl)c1 [compound 3] | 0.94 | 1.5 | 1.05 | 0.99 | 0.78 | 1.01 | – | – | – | – | – | – | – | – | – | –
CCCCCCOc1ccc(Cc2cnc(N)nc2N)cc1 [compound 1] | 0.82 | 0.99 | 1.04 | 1 | 0.77 | 1.07 | – | – | – | – | – | – | – | – | – | –
NCCCNc1ccc(C(=O)NC(CCC(=O)O)C(=O)O)cc1 (stereo not drawn) [compound 7] | – | 1.06 | – | 0.93 | – | – | 1.14 | 0.99 | 1.39 | 1.04 | – | – | – | – | – | –
CCCCCCOc1cccc(Cc2cnc(N)nc2N)c1 [compound 2] | 1.18 | 1.25 | 0.89 | 1.05 | 1.03 | 0.99 | – | – | – | – | – | – | – | – | – | –
NCCOCCOCC(=O)Nc1nc2ncc(CNc3ccc(C(=O)NC(CCC(=O)O)C(=O)O)cc3)nc2c(=O)[nH]1 (stereo not drawn) [compound 6] | – | 1.06 | – | 0.94 | – | – | 1.23 | 1.08 | 0.94 | 0.98 | – | – | – | – | – | –
Nc1nc2[nH]cc(CCc3ccc(C(=O)N[C@@H](CCC(=O)O)C(=O)O)cc3)c2c(=O)[nH]1 [PTX, pemetrexed] | – | – | – | – | – | – | – | – | – | – | 1.2 | 0.93 | 1 | 0.89 | 0.88 | 0.21
Nc1nc2c(c(=O)[nH]1)N(C=O)C(CNc1ccc(C(=O)N[C@@H](CCC(=O)O)C(=O)O)cc1)CN2 (stereo partly drawn) [LEU, leucovorin] | – | 0.88 | – | 1.02 | – | – | 0.99 | 0.93 | 0.87 | 1.07 | – | – | – | – | – | –
